Molecular target: T1, G. lamblia aldose reductase (Giardia duodenalis, UniProt A8BGX6)
T1 construct: gene GL50803_007260; full-length; E. coli BL21(DE3); observed Ser0-Asp313; dimer
T1 sequence (A8BGX6 1-313): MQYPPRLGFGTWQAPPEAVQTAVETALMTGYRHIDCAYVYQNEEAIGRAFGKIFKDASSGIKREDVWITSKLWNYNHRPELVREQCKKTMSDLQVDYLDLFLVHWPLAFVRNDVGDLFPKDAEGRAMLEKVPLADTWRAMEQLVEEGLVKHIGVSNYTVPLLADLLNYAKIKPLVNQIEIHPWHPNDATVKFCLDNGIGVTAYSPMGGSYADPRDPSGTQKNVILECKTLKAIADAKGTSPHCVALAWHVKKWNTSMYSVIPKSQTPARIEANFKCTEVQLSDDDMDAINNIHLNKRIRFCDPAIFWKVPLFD
Test: X-ray crystallography, […] Å
Assay type: binding
Conditions: co-purified (none added); crystals from 20% PEG 3350, 200 mM sodium formate, 100 mM Bis-Tris propane; cofactor site, Arg269 and His242

## NC(=O)c1ccc[n+]([C@@H]2O[C@H](COP(=O)(O)OP(=O)(O)OC[C@H]3O[C@@H](n4cnc5c(N)ncnc54)[C@H](OP(=O)(O)O)[C@@H]3O)[C@@H](O)[C@H]2O)c1 [NADP^+]
  X-ray crystallography, 1.75 Å: One NADP^+ molecule and one ethylene glycol molecule were modelled in each chain

Source: publication PMC3169411, “Structure of aldose reductase from Giardia lamblia” (Acta Crystallographica Section F: Structural Biology and …, 2011)
